Laboratory results reported in US12409238B2, “Silicone-based dyes with short wavelength infrared absorption and emission and methods for making and using the same” (UNIVERSITY OF MISSISSIPPI, priority 2021, dated 2025).

Assays:
[1] = Stability study: half-life in neutral aqueous solutions; type: physicochemical; details: xylyl substituted derivatives
Source text: The introduction of the meta-xylyl ring on the silicon-rosindolizine bridge as found to impart substantial stability compared to a tolyl ring on the silicon-rosindolizine bride. […] This increased stability is critically important to some biological imaging applications. The meta-xylyl substituted derivative retain very similar spectral properties to the tolyl derivatives with absorption and emission observed in the SWIR region. […] Application in night vision, solar cells, and photodetectors are also possible with materials absorbing in this spectral region. […] The quantum yield is near 0.01-0.05% in these environments with peak emission of SiRos1 at ˜1350 nm (FIG. 13) and peak emission of SiRos2>1550 nm.

[2] = Emission studies (SWIR emission spectra, 980 nm excitation); type: physicochemical; details: organic solvent (dichloromethane) / water when encapsulated in a polymer; SiRos1 in DCM (FIG. 13)
Experimental: 0.1 mg of silicone-based compound was combined with 10 mg DSPE-mPEG2000 (1% loading of dye by mass) in 3 mL of dichloromethane (DCM) in a 10 mL scintillation vial. The solution was vortexed for 10 seconds to homogenously mix the components. DCM was evaporated from the solution on a rotary evaporator at 50° C. until the solution forms a thin paste around the vial. Subsequently, the vial was placed on high vacuum for a half an hour to remove any residual DCM. Next, 3 mL of D2O was added and the resulting mixture was sonicated for one minute with gentle swirling to dissolve the polymer and dye together. The mixture was syringe filtered (0.45 μm) to remove any unencapsulated compound.
The emission spectra of the dyes were recorded from 1000-2500 nm using a liquid nitrogen cooled InAs fluorimeter from Horiba. A 980 nm DPSS (diode pumped solid state laser, max power 2 W) laser was used as the excitation source and the chopper signal was split from the chopper control to the lock-in-amplifier as a reference signal and the trigger signal to the laser controller. All studies were performed at 1e-5 M in DCM or 0.1 mg of dye per 3 mL D2O solution (for D2O, the dyes were solubilized in a commercially available DSPE-mPEG2000 nanoparticle, preparation previously supplied).

For CCCCC(CC)CC1=C(c2ccccc2)/C(=c2\ccc3c(c2)[Si](CC(CC)CCCC)(CC(CC)CCCC)c2cc(-c4c(-c5ccccc5)c(CC(CC)CCCC)c5cc(-c6ccc(N(C)C)cc6)ccn45)ccc2C=3c2c(C)cccc2C)[n+]2ccc(-c3ccc(N(C)C)cc3)cc21.[O-][Cl+3]([O-])([O-])[O-] (centres unmarked) [SiRos2, (Z)-7-(4-(dimethylamino)phenyl)-3-(7-(7-(4-(dimethylamino)phenyl)-1-(2-ethylhexyl)-2-phenylindolizin-3-yl)-10-(2,6-dimethylphenyl)-5,5-bis(2-ethylhexyl)dibenzo[b,e]silin-3(5H)-ylidene)-1-(2-ethylhexyl)-2-phenyl-3H-indolizin-4-ium perchlorate], the half-life [1] was “longer than a week” and the peak emission [2] was greater than 1550 nm.
In the case of CCCCC(CC)C[Si]1(CC(CC)CCCC)c2cc(-c3c(-c4ccccc4)c(-c4ccc(N(C)C)cc4)c4cc(-c5ccc(N(C)C)cc5)ccn34)ccc2C(c2c(C)cccc2C)=c2cc/c(=C3\C(c4ccccc4)=C(c4ccc(N(C)C)cc4)c4cc(-c5ccc(N(C)C)cc5)cc[n+]43)cc21.[O-][Cl+3]([O-])([O-])[O-] (centres unmarked) [SiRos3, (Z)-3-(7-(1,7-bis(4-(dimethylamino)phenyl)-2-phenylindolizin-3-yl)-10-(2,6-dimethylphenyl)-5,5-bis(2-ethylhexyl)dibenzo[b,e]silin-3(5H)-ylidene)-1,7-bis(4-(dimethylamino)phenyl)-2-phenyl-3H-indolizin-4-ium perchlorate], the half-life [1] is reported as “longer than a week”.
With CCCCC(CC)C[Si]1(CC(CC)CCCC)c2cc(-c3c(-c4ccccc4)c(C)c4ccccn34)ccc2C(c2c(C)cccc2C)=c2cc/c(=C3\C(c4ccccc4)=C(C)c4cccc[n+]43)cc21.[O-][Cl+3]([O-])([O-])[O-] (centres unmarked) [SiRos1, (Z)-3-(10-(2,6-dimethylphenyl)-5,5-bis(2-ethylhexyl)-7-(1-methyl-2-phenylindolizin-3-yl)dibenzo[b,e]silin-3(5H)-ylidene)-1-methyl-2-phenyl-3H-indolizin-4-ium perchlorate] the half-life [1] was “longer than a week” and the peak emission [2] was roughly 1350 nm.
